Read-outs that look alike come from different tables or passages of the source.
What was measured:
[1] = Oral administration of Compound PC-2 and SBTI trypsin inhibitor to rats; assay type: in vivo, rat; conditions: for Cmax (ng/mL HM): HM in rat plasma, PC-2 20 mg/kg
[2] = Oral administration of Compound PC-1 and SBTI in the presence of ovalbumin to rats (hydromorphone in plasma); conditions: HM in rat plasma; for Cmax (ng/mL HM): PC-1 20 mg/kg
Protocol: In an effort to understand the role of SBTI, ovalbumin was used as a non-trypsin inhibitor protein control. Albumin from chicken egg white (ovalbumin) (Catalog No. A7641, Grade VII, lyophilized powder, Sigma-Aldrich) was dissolved in saline.

[3] = Oral administration of Compound PC-1 and BBSI inhibitor to rats; conditions: HM in rat blood, PC-1 20 mg/kg
Source text: Dosing, sampling and analysis procedures were as described in Example 13.

[4] = Oral administration of Compound PC-1 and SBTI trypsin inhibitor to rats (hydromorphone in blood); conditions: for Cmax (ng/mL HM): HM in rat blood, PC-1 20 mg/kg
[5] = target: human μ-opioid receptor (Homo sapiens, UniProt P35372); assay: cell-based; design: expressed in transfected cells; host or cells: CHO; conditions: for EC50: agonist response, cAMP (HTRF), recombinant CHO cells, 37° C., 10 min, three separate experiments
Protocol: This Example measures the ability of certain compounds of the present disclosure to effect an agonist response when exposed to recombinant human μ-opioid receptor expressed in CHO cells.
A. and Uhl, G. R. (1994). […] The control reaction included 1 μM DAMGO. The reaction mixtures were incubated at 37° C. for 10 min, and the reaction product was cyclic AMP (cAMP). The samples were submitted to homogeneous time resolved fluorescence (HTRF®). EC50 values (concentration producing a half-maximal specific response) were determined by non-linear regression fit using the Hillplot software.

[6] = rat
[7] = Pharmacokinetics of Compound KC-5 following PO administration to rats; conditions: rat; PO Compound KC-5
[8] = target: T1, trypsin from bovine pancreas (Bos taurus, UniProt P00760); assay: In vitro trypsin-mediated release of drug from ketone-modified opioid prodrugs KC-3 to KC-6, effect of Compound 109; conditions: 0.761 mM prodrug, 37° C., no trypsin inhibitor
T1 sequence (P00760 24-246): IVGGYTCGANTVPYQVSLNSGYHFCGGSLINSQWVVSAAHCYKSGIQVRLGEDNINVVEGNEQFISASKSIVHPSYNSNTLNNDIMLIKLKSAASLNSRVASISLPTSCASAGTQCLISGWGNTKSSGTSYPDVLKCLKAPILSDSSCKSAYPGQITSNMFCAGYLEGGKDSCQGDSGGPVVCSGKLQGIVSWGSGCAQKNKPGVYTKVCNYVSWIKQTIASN
Source text: (§1) Other reaction and sample treatment conditions were as described above.

[9] = target: T2, trypsin (Bos taurus, UniProt P00760); assay: as above; conditions: bovine, trypsin from bovine pancreas, h Average ± sd
T2 sequence (P00760 24-246): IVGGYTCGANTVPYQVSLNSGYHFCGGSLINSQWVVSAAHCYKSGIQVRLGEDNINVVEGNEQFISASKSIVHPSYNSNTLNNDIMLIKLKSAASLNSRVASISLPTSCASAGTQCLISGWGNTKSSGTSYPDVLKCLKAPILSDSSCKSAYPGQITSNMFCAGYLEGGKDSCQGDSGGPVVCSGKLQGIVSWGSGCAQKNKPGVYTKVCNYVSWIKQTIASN
Source text: as §1

[10] = male, Sprague Dawley, rat, in vivo
[11] = In vitro stability of Compound KC-3 to household chemicals and enzyme preparations; assay type: physicochemical; conditions: vodka, baking soda, WINDEX, vinegar (RT or 80° C.), GNC Super Digestive, tenderizer, subtilisn (RT); 1 or 24 hr
Protocol: Samples were incubated as described. Aliquots were removed at 1 hr and 24 hr and stabilized by adding each to a solution of 50% or 100% of 85% phosphoric acid solution to achieve a final pH of less than or equal to pH 4. The stabilized aliquots were then diluted 4- to 6-fold with water, vortex-mixed and applied to HPLC.

[12] = In vivo tolerability of Compound KC-3 in rats (IV); conditions: rat, Compound KC-3 97 μmol/kg, tolerated
Protocol: Male naïve Sprague-Dawley rats, 4 per dose, were used in the study. Rats were weighed, and then placed under a heat lamp for 15-20 minutes to dilate the lateral tail veins. […] Before dosing, rats were placed in Broome restrainers and the drug was introduced into one of the tail veins using a syringe and needle. […] Blood samples were collected 5 minutes post-dose via the saphenous vein. The rats were observed up to 24 hours.

[13] = target: T2, trypsin; assay: In vitro IC50 of trypsin inhibitors, modified trypsin assay (Bergmeyer); assay type: biochemical; conditions: trypsin inhibition
[14] = Oral administration of Compound PC-3 and SBTI trypsin inhibitor to rats; assay type: in vivo; conditions: rat plasma, PC-3 20 mg/kg with SBTI 500 mg/kg
Source text: Dosing, sampling and analysis procedures were as described in Example 16.

[15] = Oral administration of Compound PC-4 and SBTI trypsin inhibitor to rats; conditions: rat plasma, PC-4 20 mg/kg with SBTI 500 mg/kg
[16] = male, Sprague Dawley, in vivo, iv, 10 mg/kg
[17] = pH 8, Pro-drug trypsin half-life, 0.761 mM prodrug, 241 BAEE U trypsin/mL, 37° C., no trypsin inhibitor

Sequence of human μ-opioid receptor (P35372 whole entry): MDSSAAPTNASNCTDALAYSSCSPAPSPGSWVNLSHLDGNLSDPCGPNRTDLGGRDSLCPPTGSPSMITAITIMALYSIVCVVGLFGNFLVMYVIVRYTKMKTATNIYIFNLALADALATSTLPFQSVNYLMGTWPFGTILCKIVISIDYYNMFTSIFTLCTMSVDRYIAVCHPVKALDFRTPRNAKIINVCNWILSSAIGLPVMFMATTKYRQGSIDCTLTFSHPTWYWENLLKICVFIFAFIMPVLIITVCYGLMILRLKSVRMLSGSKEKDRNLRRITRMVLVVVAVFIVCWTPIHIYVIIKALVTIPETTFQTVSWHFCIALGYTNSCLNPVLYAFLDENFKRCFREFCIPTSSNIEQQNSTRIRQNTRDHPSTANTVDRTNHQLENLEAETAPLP

CN(CCNC(=O)[C@@H](N)CCCNC(=N)N)C(=O)Oc1ccc2c3c1OC1C(=O)CCC4C(C2)N(C)CCC314 (stereo partly drawn) [Compound PC-2, [2-((S)-2-amino-5-guanidino-pentanoylamino)-ethyl]-methyl-carbamic acid hydromorphyl ester]
Cmax (ng/mL HM) ([1]; SBTI 0 mg/kg): 14.2 ± 2.6 ng/mL | Cmax (ng/mL HM) ([1]; SBTI 500 mg/kg): 7.3 ± 3.5 ng/mL

CC(=O)NC(CCCNC(=N)N)C(=O)NCCN(C)C(=O)Oc1ccc2c3c1OC1C(=O)CCC4C(C2)N(C)CCC314 (stereo not drawn) [Compound PC-1, hydromorphone 3-(N-methyl-N-(2-N′-acetylarginylamino)) ethylcarbamate]
plasma Tmax ([2]; PC-1 20 mg/kg alone): 2.3 h | plasma Tmax ([2]; PC-1 20 mg/kg with 500 mg/kg OVA and 500 mg/kg SBTI): 8.0 h | Cmax (ng/mL HM) ([2]; OVA 0 mg/kg, SBTI 0 mg/kg): 13.3 ± 3.7 ng/mL | Cmax (ng/mL HM) ([2]; OVA 20 mg/kg, SBTI 0 mg/kg): 11.0 ± 5.4 ng/mL | Cmax (ng/mL HM) ([2]; OVA 100 mg/kg, SBTI 0 mg/kg): 9.7 ± 3.1 ng/mL | Cmax (ng/mL HM) ([2]; OVA 500 mg/kg, SBTI 0 mg/kg): 11.6 ± 2.5 ng/mL | Cmax (ng/mL HM) ([2]; OVA 500 mg/kg, SBTI 500 mg/kg): 1.9 ± 0.9 ng/mL | Cmax (ng/mL HM) ([2]; OVA 1000 mg/kg, SBTI 0 mg/kg): 10.3 ± 3.5 ng/mL | Cmax (ng/mL HM) ([3]; BBSI 0 mg/kg, n = 4): 16.5 ± 5.3 ng/mL | Cmax (ng/mL HM) ([3]; BBSI 100 mg/kg, n = 3 (3 of the 4 rats)): 10.6 ± 5.9 ng/mL | Cmax (ng/mL HM) ([3]; BBSI 100 mg/kg, n = 4): 18.7 ± 17.0 ng/mL | Cmax (ng/mL HM) ([4]; SBTI 0 mg/kg): 16.5 ± 5.3 ng/mL | Cmax (ng/mL HM) ([4]; SBTI 10 mg/kg): 8.9 ± 1.8 ng/mL | Cmax (ng/mL HM) ([4]; SBTI 100 mg/kg): 6.0 ± 4.0 ng/mL | Cmax (ng/mL HM) ([4]; SBTI 500 mg/kg): <5 ng/mL | Cmax (ng/mL HM) ([4]; SBTI 1000 mg/kg): <5 ng/mL

COc1ccc2c3c1O[C@H]1C(OC(=O)N(CCCCCC(=O)O)CCNC(=O)[C@H](CCCNC(=N)N)NC(C)=O)=CC[C@@]4(O)[C@@H](C2)N(C)CC[C@]314 [Compound KC-5, 6-{[2-(2-Acetylamino-5-guanidino-pentanoylamino)-ethyl]-[(5R,9R,13S,14S)-4,5a-epoxy-6,7-didehydro-14-hydroxy-3-methoxy-17-methylmorphinan-6-oxy]-1-enyloxycarbonyl-amino}-hexanoic acid]
EC50 [5]: 2000 nM | plasma/CSF partitioning coefficient ([6]; male, Sprague Dawley, in vivo): 1,508 | Compound conc. in CSF [6, 16]: 36.4 ng/mL | Compound conc. in Plasma [6, 16]: 54,900 ng/mL | Plasma/CSF partitioning coefficient [6, 16]: 1,508 | relative plasma/CSF partitioning coefficient of prodrug to oxycodone (fold less CSF penetrant) ([6]; IV, 1,508/4.8): about 316 fold | oxycodone plasma concentrations compared to administration of oxycodone [7]: suppressed Cmax and AUC and delayed Tmax compared to administration of oxycodone | Rate of oxycodone formation, umol/h/BAEE U Average ± sd ([8]; 241 BAEE U trypsin/mL): 0.135 ± 0.005 umol/h/BAEE U | half-life at 0.761 mM [9, 17]: 1.2 ± 0.04 h

COc1ccc2c3c1O[C@H]1C(OC(=O)N(C)CCNC(=O)[C@H](CCCNC(=N)N)NC(=O)CC(=O)O)=CC[C@H]4[C@@H](C2)N(C)CC[C@]314 [Compound KC-4, N-((S)-1-{2-[(Dihydrocodein-6-enyloxycarbonyl)-methylamino]-ethylcarbamoyl-4-guanidino}-butyl)-malonamic acid]
Drug/prodrug relative potency ([5]; EC50 at the human μ-opioid receptor of prodrug relative to oxycodone or hydrocodone in the same experiment): 15 | EC50 [5]: 1300 nM | Rate of hydrocodone formation, umol/h/BAEE U Average ± sd ([8]; 241 BAEE U trypsin/mL): 0.0911 ± 0.015 umol/h/BAEE U | Rate of hydrocodone formation, umol/h/BAEE U Average ± sd ([8]; 4815 BAEE U trypsin/mL): 0.0137 ± 0.0014 umol/h/BAEE U | half-life at 0.761 mM [9, 17]: 6.35 ± 0.13 h | half-life at 0.761 mM ([9]; pH 8, Pro-drug trypsin half-life, 0.761 mM prodrug, 4815 BAEE U trypsin/mL, 37° C., no trypsin inhibitor): 0.315 ± 0.004 h

COc1ccc2c3c1O[C@H]1C(OC(=O)N(C)CCNC(=O)[C@H](CCCNC(=N)N)NC(=O)CC(=O)O)=CC[C@@]4(O)[C@@H](C2)N(C)CC[C@]314 [Compound KC-3, N-{(S)-4-guanidino-1-[2-(methyl-[(5R,9R,13S,14S)-4,5a-epoxy-6,7-didehydro-14-hydroxy-3-methoxy-17-methylmorphinan-6-oxy]carbonyl-amino)-ethylcarbamoyl]-butyl}-malonamic acid]
EC50 [5]: 1600 nM | Compound conc. in CSF [10]: 34.1 ng/mL | Compound conc. in Plasma [10]: 59,225 ng/mL | Plasma/CSF partitioning coefficient [10]: 1,737 | Rate of oxycodone formation, umol/h/BAEE U Average ± sd ([8]; 241 BAEE U trypsin/mL): 0.0684 ± 0.0009 umol/h/BAEE U | half-life at 0.761 mM [9, 17]: 8.92 ± 1.91 h | half-life at 0.761 mM ([9]; pH 8, with Compound 109 (trypsin inhibitor), 2 µM, Pro-drug trypsin half-life, with trypsin inhibitor Compound 109 2 uM): 43.3 ± 40.6 h | conversion to oxycodone [11]: less than 10% | time to recover to normal activity [12]: ≤ 2 min

B1: SBTI: trypsin inhibitor from Glycine max (soybean) (Catalog No. 93620, ˜10,000 units per mg, Sigma-Aldrich) (protein, UniProt P01070 25-205, looked up)
Trypsin inhibitor A: DFVLDNEGNPLENGGTYYILSDITAFGGIRAAPTGNERCPLTVVQSRNELDKGIGTIISSPYRIRFIAEGHPLSLKFDSFAVIMLCVGIPTEWSVVEDLPEGPAVKIGENKDAMDGWFRLERVSDDEFNNYKLVFCPQQAEDDKCGDIGISIDHDDGTRRLVVSKNKPLVVQFQKLDKESL
IC50 ([13]; Table 7 (Example 19)): 270 nM | IC50 ([13]; Table 20 (Example 40)): 270 nM | effect of inhibitor on prodrug's release of hydromorphone [14]: attenuates Compound PC-3's ability to release hydromorphone, both with respect to suppressing Cmax and delaying Tmax | effect of inhibitor on prodrug's release of hydromorphone ([1]; rat plasma, PC-2 20 mg/kg with SBTI 500 mg/kg): attenuates Compound PC-2's ability to release hydromorphone, both with respect to suppressing Cmax and delaying Tmax | effect of inhibitor on prodrug's release of hydromorphone ([4]; rat blood, PC-1 20 mg/kg with SBTI 10 to 1000 mg/kg): attenuates Compound PC-1's ability to release hydromorphone in a dose-dependent manner | effect of inhibitor on prodrug's release of hydromorphone [15]: attenuates Compound PC-4's ability to release hydromorphone, at least with respect to delaying Tmax
